Format in all cases: cell-based
Assay [1] addresses T1, AR (Homo sapiens, UniProt P10275, T878A).
T1 construct: endogenous in cells; host or cells: LNCaP
T1 sequence (P10275 1-920 T878A): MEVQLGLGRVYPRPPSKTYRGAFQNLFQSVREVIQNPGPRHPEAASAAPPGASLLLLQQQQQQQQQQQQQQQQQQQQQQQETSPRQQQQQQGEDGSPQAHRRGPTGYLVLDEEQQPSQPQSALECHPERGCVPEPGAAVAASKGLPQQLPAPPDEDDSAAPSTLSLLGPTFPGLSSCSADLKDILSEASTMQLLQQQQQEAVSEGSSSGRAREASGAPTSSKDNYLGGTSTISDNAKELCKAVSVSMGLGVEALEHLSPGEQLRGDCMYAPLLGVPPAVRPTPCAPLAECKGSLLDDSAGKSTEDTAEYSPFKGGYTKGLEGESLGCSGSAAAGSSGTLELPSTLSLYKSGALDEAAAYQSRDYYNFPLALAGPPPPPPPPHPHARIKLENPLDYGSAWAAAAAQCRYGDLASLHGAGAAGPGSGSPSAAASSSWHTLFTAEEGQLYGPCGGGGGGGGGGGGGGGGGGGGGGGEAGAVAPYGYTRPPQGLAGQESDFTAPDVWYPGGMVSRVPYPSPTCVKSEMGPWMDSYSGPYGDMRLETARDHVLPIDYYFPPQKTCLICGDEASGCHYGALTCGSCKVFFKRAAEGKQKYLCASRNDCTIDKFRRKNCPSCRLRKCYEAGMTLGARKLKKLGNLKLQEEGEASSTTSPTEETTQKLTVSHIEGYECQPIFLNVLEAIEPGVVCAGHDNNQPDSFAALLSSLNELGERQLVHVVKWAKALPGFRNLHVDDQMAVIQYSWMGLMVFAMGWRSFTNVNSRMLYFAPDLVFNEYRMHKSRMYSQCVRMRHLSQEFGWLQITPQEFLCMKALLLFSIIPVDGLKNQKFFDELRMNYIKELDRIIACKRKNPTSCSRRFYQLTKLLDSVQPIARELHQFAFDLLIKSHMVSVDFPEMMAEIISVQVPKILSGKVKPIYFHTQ
Kind of assay: In vitro AR degradation activity test in LNCaP cells (ELISA, OD450). The conditions noted are these: LNCaP cells, 24 hours. As for the experimental part: The cells were then digested with trypsin and counted using an automated cell counter. The cell suspension was diluted to the desired density in growth medium. The cell suspension was then seeded into 96-well plates at 100 μL per well, and the plates were incubated at 37° C. with 5% CO2 for 24 hours. The compounds were then diluted 200-fold to the final concentration with DMSO or 3-fold to the final concentration with culture medium. 50 μL of compound solution was transferred to the 96-well plate and incubated at 37° C. for 24 hours. After 24 hours of incubation, the cell plate was washed 3 times with DPBS, 100 μL of 1× lysis buffer was added to each well, and placed on ice for 30 minutes. The supernatant was collected. The protein in the cell lysate samples was quantified and then diluted to the required concentration. 100 μL of cell lysate sample was added to the appropriate wells, sealed with tape and pressed firmly on top of the wells, and the plate was incubated at 37° C. for 2 hours. The plate contents were then discarded, and washed 4 times with 1× wash buffer, 200 μL per well each time. 100 μL of reconstituted detection antibody was then added, the plate was sealed with tape and incubated at 37° C. for 1 hour. The aspiration/wash step was then repeated, 100 μL of reconstituted HRP-Linked secondary antibody was added to each well, the plate was sealed with tape and incubated at 37° C. for 30 minutes. The aspiration/wash step was then repeated, 100 μL of substrate solution was added to each well and incubated at 37° C. for 10 minutes, and finally 100 μL of stop solution was added to each well. The plate was gently tapped to ensure thorough mixing, and the OD450 nm was recorded.
Degradation rate (%)=(OD450_max−OD450_sample)/(OD450_max−OD450_min)×100,plotted using GraphPad Prism 5 software, and IC50 is calculated using SPSS software.

The test system of assay [2] is TMPRSS2. Kind of assay: TMPRSS2 mRNA expression in A549 cells (qPCR). The conditions noted are these: for TMPRSS2 mRNA level: 10 μM, 1 nM DHT, 48 h, Blank = 1.
The subject of assay [3] is ACE2. Kind of assay: ACE2 mRNA expression in A549 cells (qPCR). The conditions noted are these: for ACE2 mRNA level: 10 μM, 1 nM DHT, 48 h, Blank = 1.
Assay [4] has as its system 22RV1 prostate cancer cells. In words: Anti-proliferative activity against resistant 22RV1 cells expressing AR-V7. The conditions noted are these: 22RV1 cells, in words. The procedure:
(§1) The cells were then digested with trypsin and counted using an automated cell counter to determine cell density. The cell suspension was diluted to the desired density in growth medium. Subsequently, 100 μL of the cell suspension was seeded into 96-well plates and incubated at 37° C. with 5% CO2 for 24 hours. 10 μL of drug solution (including 3-fold serial dilutions of compounds or DMSO) was added to each well, and the plates were incubated at 37° C. with 5% CO2 for 6 days. Prior to measurement, the assay plates were equilibrated to room temperature. 40 μL of CellTiter-Glo® reagent was added to each well. The plates were mixed on an orbital shaker for 2 minutes to induce cell lysis. After incubation at room temperature for 60 minutes to stabilize the luminescence signal, the plates were read on an Envision plate reader.
The experimental procedure was essentially the same as that for LNCaP cells.

Assay [5] concerns LNCaP cells. In words: In vitro LNCaP cell proliferation inhibition test (CellTiter-Glo). Conditions: 6 days. The procedure: as §1

Regarding `C[C@]12CC[C@H](NC(=O)c3ccnnc3)CC1=CCC1C2CC[C@]2(C)C(n3cnc([N+](=O)[O-])c3)=CCC12` (stereo partly drawn) [Compound 21], in assay [1], the DC50 was 3.31 µM. Moreover, in assay [2], the “Expression of TMPRSS2 protein, in words” value is given as “significantly downregulate” and the “TMPRSS2 mRNA level” value is given as 0.196. For the same compound, in assay [3], the “Expression of ACE2 protein, in words” value was “significantly downregulate” and the “ACE2 mRNA level” value is reported as 0.234.
For the compound `CC1(C)C(=O)N(c2ccc(C#N)c(C(F)(F)F)c2F)C(=S)N1c1ccc(CCCc2ncco2)nc1` [Proxalutamide, proxalutamide, reference compound], in assay [2], the “TMPRSS2 mRNA level” value stood at 0.608. In addition, the “ACE2 mRNA level” value in assay [3] came out at 0.463.
On to `CNC(=O)c1ccc(N2C(=S)N(c3ccc(C#N)c(C(F)(F)F)c3)C(=O)C2(C)C)cc1F` [Enzalutamide, enzalutamide, reference compound], for which the “Activity against tumor cells expressing AR splice variants” value in assay [4] is on record as “no activity”. Also, the “Maximum Inhibition (%)” value in assay [5] turned out to be 55.16%.

The values are drawn from patent US20250073249A1, “STEROID COMPOUND, AND PREPARATION METHOD THEREFOR AND USE THEREOF” (SHANGHAI INSTITUTE OF MATERIA MEDICA, CHINESE ACADEMY OF …, priority 2022, published 2025).
